# According to article PMC12579162, “Synthesized Depside Molecules Suppress the Progression of Colorectal Cancer by Binding VDAC1/PHB/MMP9 Being at the Crossroads of Stemness, Motility, Apoptosis, and Metabolism” (MedComm, 2025):
# Tested on: CT26–iRFP cells
# Assay: CT26–iRFP derived tumor growth model
# Format: in vivo, BALB/C mice
# Details: 5, 10, or 20 mg/kg intraperitoneally every other day
# Description: The antitumor efficacy of VDAC1/PHB/MMP‐binding compound was evaluated using a xenograft model. Six‐week‐old male BALB/C mice were obtained from OrientBio. 1 × 10⁶ CT26 cells were subcutaneously implanted to each mouse. After 1 week inoculation, mice were treated with intraperitoneal injections of either vehicle (DMSO/PBS) or SB4 at a dose of 5, 10 and 20 mg/kg, administered every other day. Tumor volumes and body weight was measured every 2 days. Bioimaging of near‐infrared fluorescence was obtained using a FOBI system (Cellgentek, Osong, Korea) for three time point. After euthanizing the mice, tumor tissues were successfully collected, and the tumor weight was measured for each sample. According to the Guiding Principles in the Care and Use of Animals (DHEW publication, NIH 80–23), the in vivo experiments were performed with the approval of the Sunchon National University Research Institutional Animal Care and Use Committee (SCNU IACUC‐2024‐17).
smiles,measurement,setting,value
"COCCOc1c(C)c(OC(=O)c2c(C)cc(OC)c(C)c2OC)cc(C)c1C(=O)OC [SB4, 4-(Methoxycarbonyl)-3-(2-methoxyethoxy)-2,5-dimethylphenyl 2,4-dimethoxy-3,6-dimethylbenzoate]",mouse body weight,,did not influence mouse body weight
same,tumor volume and weight,versus control,significantly reduced both tumor volume and weight in a dose‐dependent manner
